Measurements from patent US8026217B2, “Compositions and methods for treating neural anoxia and spreading depression” (Florida Atlantic University, priority 2007, dated 2011).
Entries after “also recorded” stand apart in the source; their conditions may differ. Read-outs that look alike come from different tables or passages of the source.

Legend:
[1] = test system: metathoracic ganglion of the locust; experiment: SD-like events evoked by high-potassium (KCl 150 mM) injection into the locust metathoracic ganglion; type: in vivo, Locusta migratoria; settings: for time to recover ventilatory central pattern generator (vCPG) function following SD: Example 5, NO synthase inhibitor and NO donors, FIG. 4G
Source text: CSD is increasingly accepted as a primary causative agent for migraine, particularly migraine with aura. The cellular mechanisms underlying stroke, seizures and migraine are not exclusive to mammals. Using the locust (Locusta migratoria), a proven model for examining the effects of heat stress on CNS activity, a rapid rise in extracellular potassium ([K^+]o) during anoxia/hypoxia, extreme heat, and ouabain exposure was monitored. This phenomenon has all the characteristics of SD in the neocortex of mammals. Since the physiological mechanisms observed in locust SD-like events are similar to that of mammals, findings in this insect model are predictably transferable to mammals, including humans. In the locust, model SD-like events were triggered in the CNS by injecting small volumes of saline containing high levels of potassium ions (KCl at 150 mM instead of the nominal resting level of 10 mM) into the metathoracic ganglion. Potassium-sensitive microelectrodes were used to measure SD generated by KCl injections, while manipulating the PKG pathway.
This tissue response is characterised by a transient surge and subsequent clearance of potassium ions in the extracellular space ([K^+]o). During SD-like events ventilatory motor activity ceases. This was monitored using an electromyographic electrode positioned on an abdominal muscle used for ventilation (Ventilatory EMG). Upon restoration of the potassium ion gradient the neural activity recovered and preparations began to ventilate again.
The first injection was used as a control. Following the first injection, animals were allowed 10 minutes of perfusion with standard locust saline before treatment with bath applications of selected drugs (i.e. KT5823, T-0156). All drugs were dissolved in a minimum amount of DMSO before further dilution with standard locust saline to a concentration of 10^−5M and were superfused over the metathoracic ganglion for 10 minutes before the second injection. A total of 20 minutes elapsed between the first and second injection in all experiments. As shown in Figure (Bi), duration at half the maximum amplitude was used to characterize the severity of SD-like events. A significant increase was observed following the second injection when compared to the first in control animals. […] Heat shock (HS) preconditioning reduced SD duration evoked by the first and second injections. […] Numbers in the histogram bars indicate number of preparations tested. Asterisks indicate statistically significant differences between the first and second injection ([…]).
Motor pattern activity was not measured for T-0156/Cantharidin treatments. […] Figure (Cii) illustrates the drug effects by showing the percentage difference in rhythm recovery time (second injection relative to first injection).
Single SD events were evoked by injection of saline (50 nL) containing elevated potassium chloride (150 mM vs. 10 mM) directly into the metathoracic ganglion. […] During SD, ventilatory motor activity monitored electromyographically (EMG) ceased and recovered upon restoration of the potassium ion gradient. The duration of the [K^+]o wave at half its maximal amplitude and the time from failure of motor patterning to the recovery of a ventilatory rhythm were measured. […] Numbers in brackets represent sample size.
As in Example 3, SD events were evoked by injection of saline (50 nL) containing elevated potassium chloride (150 mM vs. 10 mM) directly into the metathoracic ganglion of locust preparations.

NO-producing cells = experiment: DAF2-DA staining of NO-producing cells in locust metathoracic ganglion; type: cell-based, Locusta migratoria; settings: 100 μM; 3 minutes at 35° C.
Description: The pattern of cell staining was similar to that of NOS staining in Schistocerca gregaria and L. migratoria (Müller and Bicker, The Journal of Neuroscience 14:7521-7528, 1994; Bullerjahn and Pflüger, Zoology 106:3-17, 2003). The scale in the Figure is 500 μm. FIGS. 4B and 4C show fluorescing cell bodies at room temperature (20° C.) (4B) and immediately following exposure to heat (35° C.) (4C) (scale for both Figures is 50 μm). The change in fluorescence following exposure to heat was quantified as shown in FIG. 4D (3 minutes at 35° C., shown by bar above x-axis). The difference between cell body fluorescence and background more than doubled immediately following exposure to heat (t=5 minutes). […] Fluorescence was measured from the brightest 3 cells from each ganglion. [Sample sizes: Control, n=7; LNAME, n=4; and No heat, n=3. Asterisks indicate significant differences of control from LNAME and No heat groups (Tukey, p<0.05).]

mammals (mouse or rat) = experiment: Spreading depression in mammals; type: in vivo; settings: expected
Source text: The pharmacological effects of a PDE5 inhibitor, 8-bromo-GMP, KT5823, and Cantharidin during spreading depression are examined in mammals (mouse or rat).

respiratory brain slices = experiment: Neural function in respiratory brain slices during sodium azide-induced anoxia; set-up: species or system mouse or rat; settings: expected
Source text: Neural function in mammals (mouse or rat) is examined pharmacologically during acute anoxia in respiratory brain slices via sodium azide, which chemically induces anoxia. Following administration of the sodium azide, the time until neural failure is monitored. This is done in the presence of a PDE5 inhibitor, 8-bromo-GMP, KT5823, and Cantharidin.

PKG = PKG enzyme activity assay on heads of treated flies; type: biochemical, Drosophila melanogaster; settings: heads of sitter flies treated in vivo with volatilized agent; versus sham control
Description: PKG enzyme activity assays: PKG enzyme activity assays were conducted according to the procedure outlined in Kaun et al. (J Exp Biol. 210(Pt 20):3547-3558, 2007). Adult Drosophila were decapitated and the heads were homogenized in 25 mM 1-1 Tris (pH 7.4), 1 mM 1-1 EDTA, 2 mM 1-1 EGTA, 5 mM 1-1 β-mercaptoethanol, 0.05% Triton X-100 and protease inhibitor solution (Roche Diagnostics). Following microcentrifugation for 5 min, the supernatant was removed and those supernatants containing equal amounts of total protein were examined for PKG enzyme activity. The reaction mixture contained the following substances: 40 mM 1-1 Tris-HCl (pH 7.4), 20 mM 1-1 magnesium acetate, 0.2 mM 1-1 [γ^32P]ATP (500-1000 c.p.m. pmol−1), […] heptapeptide (RKRSRAE), (SEQ ID NO:6), (3 mM 1-1 cGMP and a highly specific inhibitor of cAMP-dependent protein kinase. The next step of the procedure involved incubating the reaction mixtures at a temperature of 30° C. for 10 min, followed by ending the reaction by spotting 70 μl of the reaction mixture onto Whatman P-81 filters. To remove any unreacted [γ^32P]ATP, these spots were then soaked with 75 mM 1-1 H3PO4 for 5 min and washed three times with 75 mM 1-1 H3PO4. Before quantifying enzyme activity, filters were rinsed with 100% ethanol and air dried. To calculate PKG enzyme activity, counts were taken in a Wallac 1409 Liquid Scintillation Counter using universal scintillation cocktail (ICN). PKG activity was presented in the figures as pmol of ^32P incorporated into the substrate min−1 mg−1 protein.

zebrafish = experiment: Zebrafish behaviour during acute anoxia; type: in vivo; settings: whole zebrafish in anoxic water post-treatment; expected
Source text: Vertebrate (zebrafish) behaviour is examined during acute anoxia. Whole zebrafish are exposed to anoxic water post-treatment with a PDE5 inhibitor, 8-bromo-GMP, KT5823, and Cantharidin. The time until the animal knocks out during anoxia is monitored.

[2] = test system: adult Drosophila melanogaster; type: in vivo; settings: sitter adults, volatilized from DMSO 1 hr, 1 mM KT5823, 1 mM Cantharidin, 200 mM DCA, 10 mM 8-Bromo cGMP, 10 mM T-0156, versus DMSO sham
Description: FIG. 9 is a diagram illustrating in vivo treatment of adult Drosophila melanogaster with pharmacological agents. […] Adult sitters were exposed to various drugs known to target components of the PKG pathway (FIG. 8A). These drugs included: 10 mM T0156, a cGMP-specific phosphodiesterase-5 inhibitor, 10 mM 8-Bromo-cGMP, a PKG activator, 1 mM KT5823, a PKG inhibitor, 1 mM Cantharidin, a PP2A inhibitor, and 200 mM DCA, a K^+ channel activator. All drugs were solubilized in dimethyl sulfoxide (DMSO), where flies treated with only DMSO were used as sham controls. […] 10 μL of drug solution was applied to a crushed Kim wipe at the bottom of each 10 mL test vial. An additional Kim wipe was crushed over top of this to prevent direct contact between the fly and solution. 10 flies were then placed in the vial which was capped with a semi-permeable buzz-stopper, covered with a cut-out finger of a large latex glove to prevent chemical vapours from escaping, and incubated in the dark. The flies were subjected to the drug for 1 hr prior to each behavioural assay. In the drug combination experiments, 20 uL of DMSO was used as a control sham, and combinations of two pharmacological treatments were added as two separate 10 uL aliquots.
Whether or not fly PKG levels could be manipulated in vivo using a technique that uses volatilization of pharmacological agents was next examined. The role of these targets in vivo using sitter flies was examined by depositing pharmacological agents dissolved in DMSO on a cellulose tissue, and allowing them to volatize over minutes in an air tight vial at room temperature (FIG. 9). Adults were exposed to the volatilized compound for one hour in the dark and then assayed for locomotory resilience to acute hypoxia. Control sham animals (FIG. 7A) were treated with only DMSO. Compounds were chosen to target different components of the cGMP pathway (FIG. 8A) in tracheal smooth muscle and Chinese hamster ovary cells, where cGMP activates PKG, thereby activating PP2A, which then de-phosphorylates K^+ channels. The hypothesis that inhibition of this pathway would result in an increase in whole cell K^+ channel conductance, thereby leading to increased resilience to anoxic coma onset, was tested.
Locomotory Tolerance Assay during Acute Hypoxia: Ten flies (separated into males or females) from each of the three strains (rover [for^R], sitter [for^S] and for^s2) were selected and placed in three separate vials with food at least 24 hours before each experiment. At the time of the experiment, flies were emptied into 10 mL empty test vials covered with permeable sponge caps of equivalent thickness, allowing for consistent gas exchange. These test vials were then placed into a 600 mL beaker which was covered with parafilm, creating a closed chamber with an escape hole (1 cm diameter). The parafilm top was punctured with a needle connected to a gas tank (by a plastic hose), through which the inert gas argon was expelled. […] The needle tip was fastened to the bottom of the beaker and inserted into a larger sponge of similar texture to the vial sponge caps to ensure that gas expelled from the needle was dispersed equally throughout the beaker. Also, to ensure that all test vial positions in the beaker received equal gas flow, test vial positions were alternated every trial to reduce variability.
The experiment required exposing the test vials with 10 flies in the container to pure argon gas expelled from the tank at a flow rate of 600 cc/min+/−5%. Time of behavioural failure was recorded by observing the fly undergo a seizure, which was quickly followed by an anoxic coma.

| SMILES | time to recover ventilatory central pattern generator (vCPG) function following SD [1] | head PKG enzyme activity (PKG) | time to anoxic coma onset during acute hypoxia, single agents [2] | further results |
| --- | --- | --- | --- | --- |
| COC(=O)[C@@H](N)CCCNC(=N)N[N+](=O)[O-] [LNAME, N(G)-nitro-L-arginine methyl ester] | dramatically reduced the length of time taken to recover ventilatory central pattern generator (vCPG) function following SD |  |  | DAF2-DA cell body fluorescence in response to heat stress (NO-producing cells): prevented the increased fluorescence in response to heat stress |
| CC12C(=O)OC(=O)C1(C)C1CCC2O1 (centres unmarked) [Cantharidin, Hexahydro-3a,7a-dimethyl-4,7-epoxyisobenzofuran-1,3-dione] |  | PKG activity levels did not differ; also recorded: showed no significant effects on PKG enzyme activity levels compared to sham controls | demonstrated significant resilience to anoxic coma | SD-like events and neural function (mammals (mouse or rat)): neuroprotection and reduces SD-like events thereby prolonging neural function; time until neural failure (respiratory brain slices): neuroprotection and prolonged neural function when subject to anoxia; time until the animal knocks out during anoxia (zebrafish): neuroprotection and prolonged behaviour when subject to anoxia |
| N[C@@H](CCC(=O)N[C@@H](CSN=O)C(=O)NCC(=O)O)C(=O)O [SNOG, S-nitrosoglutathione] | did not exacerbate recovery times beyond that of control preparation times |  |  |  |
| COC(=O)c1c(-c2cc(OC)c(OC)c(OC)c2)c2ccnc(OCc3ncccn3)c2c(=O)n1Cc1ccnc(C)c1 [T-0156] |  | significant increase in PKG activity levels compared with sitter control shams; also recorded: demonstrated significant effects compared to that of the sham control | exhibited significant sensitivity to anoxic coma | length of time to recover ventilatory motor pattern activity after SD ([1]; Example 1, bath application 10^-5 M for 10 minutes before second KCl injection): took significantly longer to recover motor pattern activity after the second injection; recovery time of ventilatory rhythm, second event versus first ([1]; Example 3, drug applied for 10 minutes prior to second injection, FIG. 3D): The recovery time was increased; time to anoxic coma onset during acute hypoxia, single agents ([2]; listed as T0156): increased sensitivity to acute hypoxia |
| CC(=O)N[C@@H](C(=O)O)C(C)(C)SN=O [SNAP, S-nitroso-N-acetyl-D-penicillamine] | did not exacerbate recovery times beyond that of control preparation times |  |  |  |
